Data taken from article PMC11887451, “Leveraging Immunogenic Cell Death to Enhance the Immune Response against Malignant Pleural Mesothelioma Tumors” (Journal of the American Chemical Society, 2025).

Key:
AB12 cells = assay: Annexin V/PI assay (necrosis), flow cytometry; assay type: cell-based, mouse; details: AB12, 5 × IC50 (72 h), 100 min
Procedure: centrifugation of the cells (300 × g, 5 min), 5 ml of fresh RPMI was introduced, and the cells were seeded at a density of 5 x 10^5 cells per well into Cellstar 6-well plates (Greiner Bio-One) (1 ml per well). J774 macrophages (70-80% confluence in a T75 flask) were detached by scraping, centrifuged (300 × g, 5 min). The medium was substituted with 1 ml of DMEM containing CellTracker Green CMFDA (1 μM) and the J774 macrophages were stained at 37°C for 30 minutes. Following centrifugation of the J774 macrophages (300 × g, 5 min), 5 ml of fresh DMEM was introduced, and the macrophages were seeded into a 100 cm2 petri dish (SPL Life Sciences, Korea). After 24 h, the media in AB12 cells was replaced with 1 ml of fresh RPMI containing compounds of interest at equipotent concentration of 5 × IC50 and incubated for 100 minutes. After removing the drug-containing media, the cells were trypsinized (0.5 ml), neutralized with 1 ml of RPMI, centrifuged (300 × g, 5 min) and counted. From each sample, 2 × 10^5 AB12 cells were seeded into Cellstar 6-well plates (Greiner Bio-One) (1 ml per well).
2 × 10^5 J774 macrophages were detached from a petri dish by scraping and added to AB12 cells into 6-well plates. AB12 cells and J774 macrophages were co-incubated for 16 h at 37°C and 5% CO2, detached by scraping, centrifuged (300 × g, 5 min), and the pellets were resuspended in PBS for immediate analysis using a CytoFLEX Flow Cytometer (Beckman Coulter, USA). The percentage of phagocytosis was determined by calculating the number of double-positive macrophages (Q2) over the total number of macrophages (Q2 + Q3). Dot plots […]
analysis of the flow cytometry data. […]
concentrations for 100 min at 37 °C. […] Cell death was evaluated by flow cytometry using a CytoFLEX Flow Cytometer equipped with a 488 nm laser and a 638 nm laser (Beckman Coulter, Brea, CA, USA). The cells were excited by the 488 nm laser, and fluorescence emissions were detected at 525/40 nm for FITC (Annexin V) and at 610/20 nm for ECD (PI).
The percentage of necrosis was determined by calculating the sum of cells in Q1 and Q2. […]

[1] = tested on: AB12 cells in BALB/c mice; assay: In vivo vaccination model; design: species or system mouse; details: n = 8

F[P-](F)(F)(F)(F)F.c1cc[c]2c(c1)Nc1cccc[n+]1[Au-]21[S]C(=[N+]2CCCCCC2)[S]1 (centres unmarked) [5G]
necrosis level (Q1 + Q2) (AB12 cells): 6%–8%

Nc1nc2[nH]cc(CCc3ccc(C(=O)N[C@@H](CCC(=O)O)C(=O)O)cc3)c2c(=O)[nH]1 [Pemetrexed, pemetrexed, reference compound]
mice that developed tumors by Day 51 [1]: four of the eight
